Data published in US6914045B2, “Glycopeptide antibiotics” (Wyeth Holdings Corporation, priority 2001, dated 2005).
≈ marks a conversion by molar mass, not a printed value.

Experiments:
Escherichia coli = assay: in vitro antibacterial evaluation, MIC by broth dilution; format: cell-based; conditions: 18 hours at 35° C.
Outline: (§1)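 Read-out: the lowest concentration at which the test strain fails to grow. Serial dilutions (64-0.06 μg/mL) in Muller-Hinton II […], 5×10^5 CFU/mL inoculum, NCCLS M7-A2 procedure.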

Enterococcus sp. = assay: as above; format: cell-based; conditions: broth dilution, 18 hours at 35° C.
Outline: as §1

Streptococcus sp. = assay: as above; format: cell-based; conditions: broth dilution, 18 hours at 35° C.
Outline: as §1

Staphylococcus sp. = assay: as above; format: cell-based; conditions: broth dilution, 18 hours at 35° C.
Outline: as §1

[1] = system: Staphylococcus aureus-SMITH (GC 4543); assay: acute lethal infection in mice; format: in vivo; conditions: acute lethal infection, female CD-1 mice, intraperitoneal challenge, intravenous 30 min. after infection, 7 day survival
Outline: (§2)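 ED50 from 7 day survival ratios pooled over 3 separate tests. Female CD-1 mice, 20+/−2 gm, ip bacterial challenge (trypticase soy broth or hog gastric mucin) lethal to untreated controls in 24-48 hr; iv dosing 30 min after infection in saline or 5% dextrose, n=5/dose.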

[2] = system: Enterococcus faecalis (GC 6189); assay: acute lethal infection in mice; format: in vivo; conditions: female CD-1 mice, intraperitoneal challenge, intravenous 30 min. after infection, 7 day survival
Outline: as §2

CC(c1ccccc1)C1NC(=O)CNC(=O)C(CO)NC(=O)C(C(O)C2CNC(=N)N2C2OC(CO)C(O)C(O)C2O)NC(=O)C(C(O)C2CNC(=N)N2)NC(=O)C(Cc2ccc(OC3OC(CO)C(OC4OC5COC(C6CC=CCC6)OC5C(O)C4O)C(O)C3O)cc2)NC1=O (stereo not drawn) [Example 115, Cyclo[glycyl-β-methylphenylalanyl-O-[4-O-[4,6-O-(cyclohex-3-en-1-ylmethylene)hexopyranosyl]hexopyranosyl]tyrosyl-3-(2-iminoimidazolidin-4-yl)seryl-3-(3-hexopyranosyl-2-iminoimidazolidin-4-yl)serylseryl]]
MIC Escherichia coli (ATCC 25922) (Escherichia coli; strain ATCC 25922): 32 µg/mL (≈ 23.1 µM) | MIC Escherichia coli (GC 4559) (Escherichia coli; strain GC 4559): 64 µg/mL (≈ 46.1 µM) | MIC Escherichia coli (GC 4560) (Escherichia coli; strain GC 4560): 1 µg/mL (≈ 0.721 µM) | MIC Enterococcus avium (GC 4558) (Enterococcus sp.; Enterococcus avium (GC 4558)): 2 µg/mL (≈ 1.44 µM) | MIC Enterococcus faecalis (ATCC 29212) (Enterococcus sp.; Enterococcus faecalis (ATCC 29212)): 2 µg/mL (≈ 1.44 µM) | MIC Enterococcus faecalis (GC 2242) (Enterococcus sp.; Enterococcus faecalis (GC 2242)): 2 µg/mL (≈ 1.44 µM) | MIC Enterococcus faecalis (GC 2691) (Enterococcus sp.; Enterococcus faecalis (GC 2691)): 2 µg/mL (≈ 1.44 µM) | MIC Enterococcus faecalis (GC 3059) (Enterococcus sp.; Enterococcus faecalis (GC 3059)): 2 µg/mL (≈ 1.44 µM) | MIC Enterococcus faecalis (GC 4552) (Enterococcus sp.; Enterococcus faecalis (GC 4552)): 2 µg/mL (≈ 1.44 µM) | MIC Enterococcus faecalis (GC 4553) (Enterococcus sp.; Enterococcus faecalis (GC 4553)): 4 µg/mL (≈ 2.88 µM) | MIC Enterococcus faecalis (GC 4554) (Enterococcus sp.; Enterococcus faecalis (GC 4554)): 2 µg/mL (≈ 1.44 µM) | MIC Enterococcus faecalis (GC 6189) (Enterococcus sp.; Enterococcus faecalis (GC 6189)): 2 µg/mL (≈ 1.44 µM) | MIC Enterococcus faecium (GC 2243) (Enterococcus sp.; Enterococcus faecium (GC 2243)): 2 µg/mL (≈ 1.44 µM) | MIC Enterococcus faecium (GC 4556) (Enterococcus sp.; Enterococcus faecium (GC 4556)): 2 µg/mL (≈ 1.44 µM) | MIC Enterococcus faecium (GC 4557) (Enterococcus sp.; Enterococcus faecium (GC 4557)): 2 µg/mL (≈ 1.44 µM) | MIC Enterococcus faecalis (ATCC 29212) (Enterococcus sp.; strain ATCC 29212): 2 µg/mL (≈ 1.44 µM) | MIC Enterococcus faecalis (GC 2242) (Enterococcus sp.; strain GC 2242): 2 µg/mL (≈ 1.44 µM) | MIC Enterococcus faecium (GC 2243) (Enterococcus sp.; strain GC 2243): 2 µg/mL (≈ 1.44 µM) | MIC Enterococcus faecalis (GC 2691) (Enterococcus sp.; strain GC 2691): 2 µg/mL (≈ 1.44 µM) | MIC Enterococcus faecalis (GC 3059) (Enterococcus sp.; strain GC 3059): 2 µg/mL (≈ 1.44 µM) | MIC Enterococcus faecalis (GC 4552) (Enterococcus sp.; strain GC 4552): 2 µg/mL (≈ 1.44 µM) | MIC Enterococcus faecalis (GC 4553) (Enterococcus sp.; strain GC 4553): 4 µg/mL (≈ 2.88 µM) | MIC Enterococcus faecalis (GC 4554) (Enterococcus sp.; strain GC 4554): 2 µg/mL (≈ 1.44 µM) | MIC Enterococcus faecium (GC 4556) (Enterococcus sp.; strain GC 4556): 2 µg/mL (≈ 1.44 µM) | MIC Enterococcus faecium (GC 4557) (Enterococcus sp.; strain GC 4557): 2 µg/mL (≈ 1.44 µM) | MIC Enterococcus avium (GC 4558) (Enterococcus sp.; strain GC 4558): 2 µg/mL (≈ 1.44 µM) | MIC Enterococcus faecalis (GC 6189) (Enterococcus sp.; strain GC 6189): 2 µg/mL (≈ 1.44 µM) | MIC Streptococcus agalactiae (GC 4564) (Streptococcus sp.; Streptococcus agalactiae (GC 4564)): 0.25 µg/mL (≈ 0.18 µM) | MIC Streptococcus pneumoniae (ATCC 6301) (Streptococcus sp.; Streptococcus pneumoniae (ATCC 6301)): <0.06 µg/mL | MIC Streptococcus pneumoniae (GC 1894) (Streptococcus sp.; Streptococcus pneumoniae (GC 1894)): <0.06 µg/mL | MIC Streptococcus pneumoniae (GC 4565) (Streptococcus sp.; Streptococcus pneumoniae (GC 4565)): 0.12 µg/mL (≈ 0.0865 µM) | MIC Streptococcus pyogenes (GC 4563) (Streptococcus sp.; Streptococcus pyogenes (GC 4563)): 0.25 µg/mL (≈ 0.18 µM) | MIC Streptococcus pneumoniae (ATCC 6301) (Streptococcus sp.; strain ATCC 6301): <0.06 µg/mL | MIC Streptococcus pneumoniae (GC 1894) (Streptococcus sp.; strain GC 1894): <0.06 µg/mL | MIC Streptococcus pyogenes (GC 4563) (Streptococcus sp.; strain GC 4563): 0.25 µg/mL (≈ 0.18 µM) | MIC Streptococcus agalactiae (GC 4564) (Streptococcus sp.; strain GC 4564): 0.25 µg/mL (≈ 0.18 µM) | MIC Streptococcus pneumoniae (GC 4565) (Streptococcus sp.; strain GC 4565): 0.12 µg/mL (≈ 0.0865 µM) | MIC Coagulase Negative Staphylococcus (GC 4547) (Staphylococcus sp.): 1 µg/mL (≈ 0.721 µM) | MIC Coagulase Negative Staphylococcus (GC 4548) (Staphylococcus sp.): 0.5 µg/mL (≈ 0.36 µM) | MIC Coagulase Negative Staphylococcus (GC 4549) (Staphylococcus sp.): 1 µg/mL (≈ 0.721 µM) | MIC Coagulase Negative Staphylococcus (GC 4551) (Staphylococcus sp.): 1 µg/mL (≈ 0.721 µM) | MIC Coagulase Negative Staphylococcus (GC 6257) (Staphylococcus sp.): 0.5 µg/mL (≈ 0.36 µM) | MIC Staphylococcus aureus (ATCC 29213) (Staphylococcus sp.): 1 µg/mL (≈ 0.721 µM) | MIC Staphylococcus aureus (GC 1131) (Staphylococcus sp.): 1 µg/mL (≈ 0.721 µM) | MIC Staphylococcus aureus (GC 3051) (Staphylococcus sp.): 1 µg/mL (≈ 0.721 µM) | MIC Staphylococcus aureus (GC 3053) (Staphylococcus sp.): 1 µg/mL (≈ 0.721 µM) | MIC Staphylococcus aureus (GC 4541) (Staphylococcus sp.): 1 µg/mL (≈ 0.721 µM) | MIC Staphylococcus aureus (GC 4542) (Staphylococcus sp.): 0.5 µg/mL (≈ 0.36 µM) | MIC Staphylococcus aureus (GC 4544) (Staphylococcus sp.): 1 µg/mL (≈ 0.721 µM) | MIC Staphylococcus aureus (GC 4545) (Staphylococcus sp.): 0.5 µg/mL (≈ 0.36 µM) | MIC Staphylococcus aureus-SMITH (GC 4543) (Staphylococcus sp.): 1 µg/mL (≈ 0.721 µM) | MIC Staphylococcus haemolyticus (GC 4546) (Staphylococcus sp.): 0.5 µg/mL (≈ 0.36 µM) | MIC Staphylococcus aureus (GC 1131) (Staphylococcus sp.; inoculum 5×10^5 CFU/mL, strain GC 1131): 1 µg/mL (≈ 0.721 µM) | MIC Staphylococcus aureus (ATCC 29213) (Staphylococcus sp.; strain ATCC 29213): 1 µg/mL (≈ 0.721 µM) | MIC Staphylococcus aureus (GC 3051) (Staphylococcus sp.; strain GC 3051): 1 µg/mL (≈ 0.721 µM) | MIC Staphylococcus aureus (GC 3053) (Staphylococcus sp.; strain GC 3053): 1 µg/mL (≈ 0.721 µM) | MIC Staphylococcus aureus (GC 4541) (Staphylococcus sp.; strain GC 4541): 1 µg/mL (≈ 0.721 µM) | MIC Staphylococcus aureus (GC 4542) (Staphylococcus sp.; strain GC 4542): 0.5 µg/mL (≈ 0.36 µM) | MIC Staphylococcus aureus (GC 4544) (Staphylococcus sp.; strain GC 4544): 1 µg/mL (≈ 0.721 µM) | MIC Staphylococcus aureus (GC 4545) (Staphylococcus sp.; strain GC 4545): 0.5 µg/mL (≈ 0.36 µM) | MIC Staphylococcus haemolyticus (GC 4546) (Staphylococcus sp.; strain GC 4546): 0.5 µg/mL (≈ 0.36 µM) | MIC Coagulase Negative Staphylococcus (GC 4547) (Staphylococcus sp.; strain GC 4547): 1 µg/mL (≈ 0.721 µM) | MIC Coagulase Negative Staphylococcus (GC 4548) (Staphylococcus sp.; strain GC 4548): 0.5 µg/mL (≈ 0.36 µM) | MIC Coagulase Negative Staphylococcus (GC 4549) (Staphylococcus sp.; strain GC 4549): 1 µg/mL (≈ 0.721 µM) | MIC Coagulase Negative Staphylococcus (GC 4551) (Staphylococcus sp.; strain GC 4551): 1 µg/mL (≈ 0.721 µM) | MIC Coagulase Negative Staphylococcus (GC 6257) (Staphylococcus sp.; strain GC 6257): 0.5 µg/mL (≈ 0.36 µM) | MIC Staphylococcus aureus-SMITH (GC 4543) (Staphylococcus sp.; strain SMITH GC 4543): 1 µg/mL (≈ 0.721 µM) | median effective dose (ED50), Staphylococcus aureus-SMITH (GC 4543) [1]: 0.23 mg/kg | median effective dose (ED50), Enterococcus faecalis (GC 6189) [2]: 0.36 mg/kg
